In ChEMBL document CHEMBL1201862, “PubChem BioAssay data set” (2004):
Values joined by “and” are separate entries in the source; they are usually repeats but may differ in a detail not shown here. Equal entries are not always repeated.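 Interpolation was linear, between the two tested concentrations surrounding the appropriate level; five concentrations were tested over 48 hours in 96-well plates. The concentration for 50% growth inhibition is given as GI50.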 Active and inactive are the calls of the source. Rule as the data show it: active = GI50 up to about 1.1 µM and inactive = higher.

What was measured:
Assay in all cases: NCI tumour cell line growth inhibition, 48 h
NCI-H522 = test system: NCI-H522
786-0 = test system: 786-0
SNB-75 = test system: SNB-75
Hs-578T = test system: Hs-578T
MCF7 = test system: MCF7
NCI/ADR-RES = test system: NCI/ADR-RES
ACHN = test system: ACHN
RPMI-8226 = test system: RPMI-8226
SR = test system: SR
IGROV-1 = test system: IGROV-1
A549 = test system: A549
TK-10 = test system: TK-10
M14 = test system: M14
HOP-62 = test system: HOP-62
UACC-257 = test system: UACC-257
UO-31 = test system: UO-31
NCI-H460 = test system: NCI-H460
SK-OV-3 = test system: SK-OV-3
A498 = test system: A498
Malme-3M = test system: Malme-3M

Measured: GI50

Nc1ccn(C2CC(O)C(COP(=O)(S)OC3CC(n4ccc(N)nc4=O)OC3CO)O2)c(=O)n1 (stereo not drawn)
inactive: NCI-H522 > 100 µM | 786-0 > 100 µM | SNB-75 36.5 µM | Hs-578T > 100 µM | MCF7 > 100 µM | NCI/ADR-RES > 100 µM | ACHN > 100 µM | RPMI-8226 > 100 µM | SR > 100 µM | IGROV-1 > 100 µM | A549 > 100 µM | TK-10 > 100 µM | M14 > 100 µM | HOP-62 > 100 µM | UACC-257 > 100 µM | UO-31 > 100 µM | NCI-H460 > 100 µM

O=C1/C(=C\c2ccc(Br)cc2)CCCc2ccccc21
inactive: 786-0 14.6 µM | SNB-75 18.8 µM | Hs-578T 17.3 µM | SK-OV-3 35.6 µM | MCF7 19.5 µM | A498 23.8 µM | NCI/ADR-RES 13.4 µM | ACHN 16.9 µM | RPMI-8226 17.1 µM | SR 23 µM | IGROV-1 16.4 µM | A549 31.6 µM | TK-10 18.7 µM | M14 29.6 µM | HOP-62 46.5 µM | UACC-257 19.5 µM | UO-31 14.6 µM | NCI-H460 17 µM

C=C1C[C@]23CC[C@@H]4C(CO)(CO)CC(=O)C[C@]4(C)[C@@H]2CC[C@H]1C3
inactive: NCI-H522 > 100 µM | 786-0 > 100 µM | SNB-75 > 100 µM | Hs-578T > 100 µM | SK-OV-3 > 100 µM | MCF7 > 100 µM | NCI/ADR-RES > 100 µM | ACHN > 100 µM | RPMI-8226 > 100 µM | SR > 100 µM | IGROV-1 57.9 µM | Malme-3M > 100 µM | A549 > 100 µM | TK-10 > 100 µM | M14 > 100 µM | HOP-62 > 100 µM | UACC-257 > 100 µM | UO-31 78.5 µM | NCI-H460 > 100 µM

SC1=C2CCCCCC2=NC2(CCCCCC2)S1
inactive: 786-0 33.1 µM | SNB-75 19.2 µM | Hs-578T 11.6 µM | SK-OV-3 62.8 µM | MCF7 19 µM | NCI/ADR-RES 26.5 µM | ACHN 13 µM | RPMI-8226 18.5 µM | SR 15.6 µM | IGROV-1 44.1 µM | Malme-3M 22 µM | A549 24.5 µM | TK-10 24.7 µM | M14 35.2 µM | HOP-62 31.7 µM | UACC-257 11 µM | UO-31 11.6 µM | NCI-H460 17.3 µM

CC1=NN(c2nc(N)nc(/C(C#N)=C\C3COc4ccccc4C3=O)n2)C(C)(C)C1 (stereo not drawn)
inactive: NCI-H522 26.2 µM | 786-0 19.2 µM | Hs-578T 24 µM | SK-OV-3 25.8 µM | MCF7 32.4 µM | A498 17.9 µM | NCI/ADR-RES 15.9 µM | ACHN 23.6 µM | RPMI-8226 17.7 µM | SR 17.6 µM | IGROV-1 32.7 µM | TK-10 27.6 µM | M14 23.7 µM | HOP-62 32.7 µM | UACC-257 51.4 µM | UO-31 18.9 µM | NCI-H460 26.9 µM

COC(=O)c1cnc(Cl)cn1
inactive: NCI-H522 2.49 µM | 786-0 > 100 µM | SNB-75 90.4 µM | Hs-578T 50.6 µM | SK-OV-3 > 100 µM | MCF7 38.4 µM | NCI/ADR-RES 45.6 µM | ACHN 71 µM | RPMI-8226 21 µM | SR 42.5 µM | IGROV-1 29.4 µM | Malme-3M 50.2 µM | A549 > 100 µM | TK-10 > 100 µM | M14 53.8 µM | HOP-62 > 100 µM | UACC-257 57.9 µM | UO-31 20.2 µM | NCI-H460 > 100 µM

COc1ccccc1/N=N/c1c(O)ccc2ccccc12
inactive: 786-0 13.8 µM and 19.3 µM | SNB-75 18.7 µM and 19.6 µM | Hs-578T 28.7 µM and 26.6 µM | SK-OV-3 13.6 µM and 18.3 µM | MCF7 52.8 µM | A498 32.1 µM and 23.5 µM | NCI/ADR-RES 42.1 µM and 35 µM | ACHN 13.6 µM | SR 24.3 µM | A549 32.7 µM and 23 µM | TK-10 14.6 µM and 23.4 µM | HOP-62 15.8 µM and 14.5 µM | UO-31 17.9 µM and > 10 µM | NCI-H460 18.9 µM

CC(=O)C(C(C)=O)=C1CCCC(O)O1 (stereo not drawn)
inactive: 786-0 > 100 µM | SNB-75 > 100 µM | Hs-578T 47.4 µM | SK-OV-3 > 100 µM | MCF7 > 100 µM | A498 > 100 µM | NCI/ADR-RES > 100 µM | ACHN > 100 µM | RPMI-8226 > 100 µM | SR 62.2 µM | IGROV-1 > 100 µM | Malme-3M > 100 µM | A549 > 100 µM | TK-10 > 100 µM | M14 > 100 µM | HOP-62 > 100 µM | UACC-257 > 100 µM | UO-31 > 100 µM | NCI-H460 > 100 µM

CC(C)NC(=O)N(Nc1ccccc1)C(C)(C)C
inactive: 786-0 > 100 µM | SNB-75 73.8 µM | Hs-578T > 100 µM | SK-OV-3 > 100 µM | MCF7 > 100 µM | A498 > 100 µM | NCI/ADR-RES > 100 µM | ACHN > 100 µM | SR > 100 µM | IGROV-1 > 100 µM | Malme-3M > 100 µM | A549 > 100 µM | TK-10 > 100 µM | M14 > 100 µM | HOP-62 > 100 µM | UACC-257 > 100 µM | UO-31 96.2 µM | NCI-H460 > 100 µM

COc1ccc2oc(=N)c(C(=O)Nc3ccccn3)cc2c1
inactive: 786-0 > 100 µM | SNB-75 > 100 µM | Hs-578T > 100 µM | SK-OV-3 > 100 µM | MCF7 35.1 µM | A498 > 100 µM | NCI/ADR-RES > 100 µM | ACHN 76 µM | RPMI-8226 > 100 µM | SR > 100 µM | IGROV-1 53.6 µM | Malme-3M 61.2 µM | A549 > 100 µM | M14 > 100 µM | HOP-62 > 100 µM | UACC-257 > 100 µM | NCI-H460 > 100 µM

O=C(O)CCC(NC(=O)c1ccc(Nc2nc3ccc(C(F)(F)F)cc3nc2C(=O)O)cc1)C(=O)O (stereo not drawn)
inactive: NCI-H522 > 100 µM | 786-0 > 100 µM | SNB-75 > 100 µM | Hs-578T > 100 µM | MCF7 > 100 µM | A498 > 100 µM | NCI/ADR-RES > 100 µM | ACHN > 100 µM | RPMI-8226 > 100 µM | SR > 100 µM | IGROV-1 > 100 µM | A549 > 100 µM | TK-10 > 100 µM | M14 > 100 µM | HOP-62 > 100 µM | UACC-257 > 100 µM | UO-31 > 100 µM
